# Reference: patent US20040214237A1, “DNA encoding SNORF138 and uses thereof” (Synaptic Pharmaceutical Corporation, priority 2002, published 2004)
# Key:
# [1] = biological target: T1, hSN138 (human SNORF138 receptor) (Homo sapiens, UniProt Q8TDU6); assay: Activation of CFTR currents in Xenopus oocytes expressing both hSN138 and CFTR (dual electrode voltage clamp); format: cell-based; set-up: dose or concentration left out as unconfirmed; settings: betamethasone valerate, bullet application, holding potential -80 mV, n=8
# T1 construct: expressed in transfected cells; host or cells: Xenopus laevis oocytes (cytoplasmic injection of T3-driven cDNA with T3 RNA polymerase)
# T1 sequence (Q8TDU6 1-330): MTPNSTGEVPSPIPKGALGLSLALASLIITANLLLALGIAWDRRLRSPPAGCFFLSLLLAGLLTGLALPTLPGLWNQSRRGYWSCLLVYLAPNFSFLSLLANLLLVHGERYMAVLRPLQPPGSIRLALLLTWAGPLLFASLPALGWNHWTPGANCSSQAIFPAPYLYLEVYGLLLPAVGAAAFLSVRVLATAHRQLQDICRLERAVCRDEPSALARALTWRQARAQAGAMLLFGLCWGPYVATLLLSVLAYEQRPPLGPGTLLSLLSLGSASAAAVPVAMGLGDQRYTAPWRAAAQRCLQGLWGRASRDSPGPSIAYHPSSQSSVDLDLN
# Description: Oocytes were injected with a cocktail of T3-driven hSN138 cDNA, T3-RNA polymerase and dNTP with or without T3-driven CFTR cDNA directly into the cytoplasm as previously described (Geib et al., 2001). After 2 days of incubation at 15° C., dual electrode voltage clamp was performed using 3 M KCl-filled glass microelectrodes with resistances of 1-2 MΩ. Unless otherwise specified, oocytes were voltage-clamped at a holding potential of −80 mV. During recordings, oocytes were bathed in continuously flowing (1-3 ml/min) medium containing 96 mM NaCl, 2 mM KCl, 1.8 mM CaCl2, and 5 mM HEPES, pH 7.5 (ND96 Buffer). Drugs were applied by local perfusion from a 10 ml glass capillary tube at a distance of 0.5 mm from the oocyte. […] CFTR channel activity is heavily regulated by the cytosolic levels of cyclic AMP which can be increased by activation of GS-coupled adenylyl cyclase (AC). Therefore, activation of GS-coupled AC pathway is assayed by applying test compound in ND96 solution to oocytes and observing the changes of inward CFTR currents at a holding potential of −80 mV.
# [2] = system: CFTR; assay: CFTR currents in Xenopus oocytes expressing CFTR alone (control without receptor); format: cell-based; set-up: dose or concentration left out as unconfirmed; settings: betamethasone valerate, bullet application, n=4
# Description: In the present invention, oocytes are harvested from Xenopus laevis as previously described (Quick and Lester, 1994; Smith et al., 1997). Oocytes were injected with a cocktail of T3-driven hSN138 cDNA, T3-RNA polymerase and dNTP with or without T3-driven CFTR cDNA directly into the cytoplasm as previously described (Geib et al., 2001). After 2 days of incubation at 15° C., dual electrode voltage clamp was performed using 3 M KCl-filled glass microelectrodes with resistances of 1-2 MΩ. Unless otherwise specified, oocytes were voltage-clamped at a holding potential of −80 mV. During recordings, oocytes were bathed in continuously flowing (1-3 ml/min) medium containing 96 mM NaCl, 2 mM KCl, 1.8 mM CaCl2, and 5 mM HEPES, pH 7.5 (ND96 Buffer). Drugs were applied by local perfusion from a […] glass capillary tube at a distance of 0.5 mm from the oocyte. Heterologous expression of GPCRs in Xenopus oocytes has been widely used to determine the identity of signaling pathways activated by agonist stimulation. CFTR channel activity is heavily regulated by the cytosolic levels of cyclic AMP which can be increased by activation of GS-coupled adenylyl cyclase (AC). Therefore, activation of GS-coupled AC pathway is assayed by applying test compound in ND96 solution to oocytes and observing the changes of inward CFTR currents at a holding potential of −80 mV.
structure (smiles),measurement,setting,value
"CCCCC(=O)O[C@]1(C(=O)CO)[C@@H](C)C[C@H]2[C@@H]3CCC4=CC(=O)C=C[C@]4(C)[C@@]3(F)[C@@H](O)C[C@@]21C [betamethasone valerate, fluoro-11b,17,21-trihydroxy-16b-methylpregna-1,4-diene-3,20-dione 17-valerate]",increase of CFTR currents,[1],9.2±1.9 nA
same,changes in CFTR currents,[2],no significant changes
